Reference: patent US6495152B2, “Sulfur containing polyhydroxyalkanoate compositions and method of production” (Tepha, Inc., priority 2000, dated 2002)

What was measured:
R. eutropha = assay: Growth experiments in mineral salts medium with sulfur-containing carbon sources; format: cell-based, R. eutropha H16; conditions: for Use as sole carbon source for growth: R. eutropha strain H16
Method: (§1) Bacterial strains and culture conditions. R. eutropha H16 (DSM 428) and R. eutropha PHB^−4 (DSM 541) were cultivated in nutrient broth (NB) growth medium or in mineral salts medium (MSM) (Schlegel et al., (1961) Arch. Mikrobiol. 38, 209-222) at 30° C. in Erlenmeyer flasks under aerobic conditions on a rotary shaker with 130 strokes/min. In order to promote PHA accumulation, the ammonia concentration was reduced to 0.05% (w/v). Carbon sources were added from filter-sterilized 20% (w/v) stock solutions at the concentrations indicated in the text.
as §1, with “PHB-4” for “PHB^−4”, “(Schlegel, 1961, supra)” for “(Schlegel et al., (1961) Arch. Mikrobiol. 38, 209-222)”, “filter-sterilized” for “filter-sterilized 20% (w/v)”

Pseudomonas strains = assay: Growth experiments of pseudomonades on alkylthioalkanoic acids; format: cell-based; conditions: for Use as sole carbon source for growth: all Pseudomonas strains investigated; for Concentration above which cell growth was impaired: pseudomonades
Description: (§2) Bacterial strains and culture conditions. The PHA-negative mutant R. eutropha PHB^−4 (DSM 541) and a recombinant strain of R. eutropha PHB^−4 harbouring plasmid pBBR1::phaC1 expressing the PHA synthase 1 of Pseudomonas mendocina, as well as Pseudomonas putida KT2440 (Worsey & Williams, “Metabolism of toluene and xylenes by Pseudomonas putida (arvilla) mt-2: evidence for a new function of the TOL plasmid” in J Bacteriol 124:7-13 (1975)), P. aeruginosa PAO1 (ATCC 15692), P. oleovorans (ATCC 29347), and P. mendocina (DSM 50017) were used. Cultivations were performed in nutrient broth (NB) medium or mineral salts medium (MSM) according to Schlegel (1961), supra, to which different alkylthioalkanoic acids were added as carbon sources from filter-sterilized 10% (w/v) stock solutions at the concentrations indicated in the text. Fed batch cultivations were carried out under aerobic conditions at 30° C. in 2 l Erlenmeyer flasks containing 500 ml of medium which were agitated at 130 r.p.m. In order to promote PHA accumulation, the ammonia concentration was reduced to 0.05% (w/v) in MSM.
(§3) Growth and PHA accumulation of bacteria on alkylthioalkanoic acids. To evaluate the capabilities of various pseudomonades to use alkylthioalkanoic acids (ATAs) as carbon and energy sources for the synthesis of sulfur containing PHAs, growth experiments were carried out employing MSM agar plates which contained propylthioundecanoic acid (PTUD), propylthiooctanoic acid (PTO), octylthiohexanoic acid (OTHx), butylthiovaleric acid (BTV), or propylthiopropionic acid (PTP) as carbon sources.

P. oleovorans = assay: Growth on MSM agar plates containing ATAs as sole carbon sources; format: cell-based, Pseudomonas oleovorans; set-up: key: +: growth; ++: good growth; −: no growth; *: thiol odor detected; conditions: sole carbon source
Description: as §2, §3

P. aeruginosa = assay: as above; format: cell-based, Pseudomonas aeruginosa PAO1; set-up: key: +: growth; ++: good growth; −: no growth; *: thiol odor detected; conditions: sole carbon source
Description: as §2, §3

P. mendocina = assay: as above; format: cell-based, Pseudomonas mendocina; set-up: key: +: growth; ++: good growth; −: no growth; *: thiol odor detected; conditions: sole carbon source
Description: as §2, §3

P. putida = assay: as above; format: cell-based, Pseudomonas putida KT2440; set-up: key to Growth on MSM agar plates: +: growth; ++: good growth; −: no growth; *: thiol odor detected; conditions: sole carbon source; for Growth on MSM agar plates: P. putida
Description: as §2, §3

[1] = tested on: R. eutropha PHB-4 harboring pBBR1::phaC1; assay: Growth in MSM containing PTO as the sole carbon source; format: cell-based
Description: as §2
Since growth of R. eutropha PHB-4 harboring pBBR1::phaC1 in MSM containing PTO as the sole carbon source was very poor, cultivations were carried out in complex medium (NB) or in MSM containing sodium gluconate as second utilizable carbon source in addition to PTO. […]

## CC(S)CC(=O)O (stereo not shown) [3-mercaptobutyric acid]
R. eutropha
  Use as sole carbon source for growth: not able to use

## O=C(O)CCS [3-mercaptopropionic acid]
R. eutropha
  Use as sole carbon source for growth: not able to use
R. eutropha; mineral salts medium plus readily utilized carbon source such as gluconic acid, R. eutropha and other bacteria
  Concentration in the medium above which growth was impaired: higher than 0.1 % (w/v)

## CCCCSCCCCC(=O)O [BTV]
Pseudomonas strains
  Use as sole carbon source for growth: able to use
  Concentration above which cell growth was impaired: > 0.4 % (w/v)
P. oleovorans; 0.3% (w/v)
  Growth on MSM agar plates: +*
P. aeruginosa; 0.3% (w/v)
  Growth on MSM agar plates: +*
P. mendocina; 0.3% (w/v)
  Growth on MSM agar plates: +*
P. putida; 0.3% (w/v)
  Growth on MSM agar plates: +*

## O=C(O)CCSCCC(=O)O [TDP, 3,3′-thiodipropionic acid]
R. eutropha
  Use as sole carbon source for growth: not able to use
R. eutropha; mineral salts medium plus readily utilized carbon source such as gluconic acid
  Concentration up to which no toxic effects on growth were exerted: ≤ 1.5 % (w/v)

## octylthiohexanoic acid [OTHx]
Pseudomonas strains
  Use as sole carbon source for growth: able to use
P. oleovorans; 0.6% (w/v)
  Growth on MSM agar plates: ++
P. aeruginosa; 0.6% (w/v)
  Growth on MSM agar plates: ++
P. mendocina; 0.6% (w/v)
  Growth on MSM agar plates: ++
P. putida; 0.6% (w/v)
  Growth on MSM agar plates: ++

## propylthiooctanoic acid [PTO]
[1]
  Growth with the substance as the sole carbon source: very poor
Pseudomonas strains
  Use as sole carbon source for growth: able to use
  Concentration above which cell growth was impaired: higher than 0.8 % (w/v)
P. oleovorans; 0.4% (w/v)
  Growth on MSM agar plates: +
P. aeruginosa; 0.4% (w/v)
  Growth on MSM agar plates: +
P. mendocina; 0.4% (w/v)
  Growth on MSM agar plates: ++
P. putida; 0.4% (w/v)
  Growth on MSM agar plates: +

## propylthiopropionic acid [PTP]
Pseudomonas strains
  Use as sole carbon source for growth: not used by any bacterium for growth
P. oleovorans; 0.2% (w/v)
  Growth on MSM agar plates: −
P. aeruginosa; 0.2% (w/v)
  Growth on MSM agar plates: −
P. mendocina; 0.2% (w/v)
  Growth on MSM agar plates: −
P. putida; 0.2% (w/v)
  Growth on MSM agar plates: −

## propylthioundecanoic acid [PTUD]
Pseudomonas strains
  Use as sole carbon source for growth: able to use
P. oleovorans; 0.4% (w/v)
  Growth on MSM agar plates: ++*
P. aeruginosa; 0.4% (w/v)
  Growth on MSM agar plates: ++*
P. mendocina; 0.4% (w/v)
  Growth on MSM agar plates: ++*
P. putida; P. putida KT2440
  Growth in comparison to other pseudomonades: significantly lower
P. putida; 0.4% (w/v)
  Growth on MSM agar plates: +*
